In ChEMBL document CHEMBL1201861, “Genomics of Drug Sensitity in Cancer screening data, Wellcome Trust Sanger Institute”:

What was measured:
Test in all cases: cells
Details in all cases: Homo sapiens
EOL1 = format: functional, cell-based;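 also: growth inhibition of EoL-1 cells, read out by a cell viability assay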
Description: SANGER: Inhibition of human EoL-1-cell cell growth in a cell viability assay.

ATN-1 = format: functional, cell-based;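 also: growth inhibition of human ATN-1 cells, read out with a cell viability assay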
Description: SANGER: Inhibition of human ATN-1 cell growth in a cell viability assay.

MZ2-MEL = format: functional, cell-based;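 also: growth inhibition of MZ2-MEL cells read out with a cell viability assay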
Description: SANGER: Inhibition of human MZ2-MEL cell growth in a cell viability assay.

ETK-1 = format: functional, cell-based;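 also: growth inhibition of human ETK-1 cells, read out with a cell viability assay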
Description: SANGER: Inhibition of human ETK-1 cell growth in a cell viability assay.

TE-12 = format: functional, cell-based;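 also: growth inhibition of TE-12 cells, read out by a cell viability assay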
Description: SANGER: Inhibition of human TE-12 cell growth in a cell viability assay.

IST-SL1 = format: functional, cell-based;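 also: growth inhibition of human IST-SL1 cells, read out with a cell viability assay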
Description: SANGER: Inhibition of human IST-SL1 cell growth in a cell viability assay.

COLO-824 = format: functional, cell-based
Description: SANGER: Inhibition of human COLO-824 cell growth in a cell viability assay.

MC116 = format: functional, cell-based;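 also: growth inhibition of MC116 cells, read out with a cell viability assay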
Description: SANGER: Inhibition of human MC116 cell growth in a cell viability assay.

SNB-75 = format: functional, cell-based;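 also: cell viability assay measuring growth inhibition of human SNB-75 cells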
Description: SANGER: Inhibition of human SNB75 cell growth in a cell viability assay.

CTV-1 = format: functional, cell-based;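 also: growth inhibition of the cell line, read out with a cell viability assay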
Description: SANGER: Inhibition of human CTV-1 cell growth in a cell viability assay.

NCI-H510A = format: functional, cell-based;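 also: growth inhibition of NCI-H510A cells, read out with a cell viability assay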
Description: SANGER: Inhibition of human NCI-H510A cell growth in a cell viability assay.

NCI-H1304 = format: functional, cell-based;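 also: growth inhibition of the cancer cell line, measured in a cell viability assay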
Description: SANGER: Inhibition of human NCI-H1304 cell growth in a cell viability assay.

TGBC1TKB = format: functional, cell-based;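 also: growth inhibition of TGBC1TKB cells, read out by a cell viability assay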
Description: SANGER: Inhibition of human TGBC1TKB cell growth in a cell viability assay.

LB2518-MEL = format: functional, cell-based;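 also: growth inhibition of human LB2518-MEL cells, measured with a cell viability assay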
Description: SANGER: Inhibition of human LB2518-MEL cell growth in a cell viability assay.

SK-N-DZ = format: functional, cell-based;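 also: growth inhibition of the cancer cell line, read out through a viability assay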
Description: SANGER: Inhibition of human SK-N-DZ cell growth in a cell viability assay.

SHP77 = format: functional, cell-based, SHP-77;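 also: growth inhibition of human SHP-77 cells measured by a cell viability assay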
Description: SANGER: Inhibition of human SHP-77 cell growth in a cell viability assay.

NCI-H720 = format: functional, cell-based;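 also: growth inhibition of human NCI-H720 cells determined by a cell viability assay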
Description: SANGER: Inhibition of human NCI-H720 cell growth in a cell viability assay.

SCH = format: functional, cell-based;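 also: growth inhibition of human SCH cells, read out in a cell viability assay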
Description: SANGER: Inhibition of human SCH cell growth in a cell viability assay.

BV-173 = format: functional, cell-based
Description: SANGER: Inhibition of human BV-173 cell growth in a cell viability assay.

HD-MY-Z = format: functional, cell-based;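 also: growth inhibition of HD-MY-Z cells, read out with a cell viability assay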
Description: SANGER: Inhibition of human HD-MY-Z cell growth in a cell viability assay.

L-428 = format: functional, cell-based
Description: SANGER: Inhibition of human L-428 cell growth in a cell viability assay.

NCI-H82 = format: functional, cell-based;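 also: growth inhibition of NCI-H82 cells, measured with a cell viability readout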
Description: SANGER: Inhibition of human NCI-H82 cell growth in a cell viability assay.

HAL-01 = format: functional, cell-based;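 also: growth inhibition of human HAL-01 cells, read out with a cell viability assay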
Description: SANGER: Inhibition of human HAL-01 cell growth in a cell viability assay.

OCI-AML2 = format: functional, cell-based;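 also: growth inhibition of OCI-AML2 cells, read out with a cell viability assay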
Description: SANGER: Inhibition of human OCI-AML2 cell growth in a cell viability assay.

NCI-H1092 = format: functional, cell-based;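 also: cell growth inhibition measured with a cell viability assay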
Description: SANGER: Inhibition of human NCI-H1092 cell growth in a cell viability assay.

MPP-89 = format: functional, cell-based;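 also: growth inhibition of human MPP-89 cells, read out with a cell viability assay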
Description: SANGER: Inhibition of human MPP-89 cell growth in a cell viability assay.

NCI-H2126 = format: functional, cell-based;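 also: growth inhibition of the cancer cell line, determined with a cell viability readout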
Description: SANGER: Inhibition of human NCI-H2126 cell growth in a cell viability assay.

HT-144 = format: functional, cell-based
Description: SANGER: Inhibition of human HT-144 cell growth in a cell viability assay.

DMS-79 = format: functional, cell-based;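 also: growth inhibition measured with a cell viability assay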
Description: SANGER: Inhibition of human DMS-79 cell growth in a cell viability assay.

NCI-H1770 = format: functional, cell-based;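 also: growth inhibition of NCI-H1770 cells determined with a viability readout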
Description: SANGER: Inhibition of human NCI-H1770 cell growth in a cell viability assay.

KU812 cell line = format: functional, cell-based;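 also: growth inhibition of KU812 cells, read out with a cell viability assay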
Description: SANGER: Inhibition of human KU812 cell growth in a cell viability assay.

NCI-H1395 = format: functional, cell-based;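 also: cell viability assay read-out quantifying reduced proliferation of human NCI-H1395 cells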
Description: SANGER: Inhibition of human NCI-H1395 cell growth in a cell viability assay.

Calu-6 = format: functional, cell-based;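 also: growth of human Calu-6 cells, read out by a cell viability assay, IC50 marking inhibition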
Description: SANGER: Inhibition of human Calu-6 cell growth in a cell viability assay.

BB65-RCC = format: functional, cell-based;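 also: growth inhibition of the cell line, measured with a cell viability assay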
Description: SANGER: Inhibition of human BB65-RCC cell growth in a cell viability assay.

no-10 = format: functional, cell-based;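 also: growth inhibition of no-10 cells, read out with a cell viability assay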
Description: SANGER: Inhibition of human no-10 cell growth in a cell viability assay.

NCI-H23 = format: functional, cell-based;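 also: cell viability assay measuring growth inhibition of NCI-H23 cells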
Description: SANGER: Inhibition of human NCI-H23 cell growth in a cell viability assay.

A498 = format: functional, cell-based;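 also: growth inhibition of human A498 cells, read out with a cell viability assay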
Description: SANGER: Inhibition of human A498 cell growth in a cell viability assay.

LAMA-84 = format: functional, cell-based;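 also: growth inhibition of LAMA-84 cells, read out with a cell viability assay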
Description: SANGER: Inhibition of human LAMA-84 cell growth in a cell viability assay.

DEL = format: functional, cell-based;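 also: growth inhibition of the human DEL cell line, read out with a cell viability assay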
Description: SANGER: Inhibition of human DEL cell growth in a cell viability assay.

OS-RC-2 = format: functional, cell-based;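 also: growth inhibition of human OS-RC-2 cells, measured by a cell viability assay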
Description: SANGER: Inhibition of human OS-RC-2 cell growth in a cell viability assay.

MFM-223 = format: functional, cell-based
Description: SANGER: Inhibition of human MFM-223 cell growth in a cell viability assay.

NCI-H226 = format: functional, cell-based;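 also: cell viability read-out used to gauge growth inhibition of the cells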
Description: SANGER: Inhibition of human NCI-H226 cell growth in a cell viability assay.

COLO-829 = format: functional, cell-based
Description: SANGER: Inhibition of human COLO-829 cell growth in a cell viability assay.

CAS-1 = format: functional, cell-based;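 also: growth inhibition of CAS-1 cells, measured with a cell viability assay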
Description: SANGER: Inhibition of human CAS-1 cell growth in a cell viability assay.

RH-1 = format: functional, cell-based;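 also: growth inhibition of human RH-1 cells, read out with a cell viability assay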
Description: SANGER: Inhibition of human RH-1 cell growth in a cell viability assay.

DMS-114 = format: functional, cell-based
KALS-1 = format: functional, cell-based;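 also: growth inhibition of KALS-1 cells, determined with a cell viability assay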
Description: SANGER: Inhibition of human KALS-1 cell growth in a cell viability assay.

LC-2-ad = format: functional, cell-based;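 also: growth inhibition of human LC-2-ad cells, read out with a cell viability assay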
Description: SANGER: Inhibition of human LC-2-ad cell growth in a cell viability assay.

EW-24 = format: functional, cell-based;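 also: human EW-24 cancer cell line, growth inhibition read out via a cell viability assay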
Description: SANGER: Inhibition of human EW-24 cell growth in a cell viability assay.

LU-139 = format: functional, cell-based
Description: SANGER: Inhibition of human LU-139 cell growth in a cell viability assay.

NH-12 = format: functional, cell-based;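 also: growth inhibition of NH-12 cells, read out with a cell viability assay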
Description: SANGER: Inhibition of human NH-12 cell growth in a cell viability assay.

SK-N-FI = format: functional, cell-based;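 also: cell viability assay measuring growth inhibition of human SK-N-FI cells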
Description: SANGER: Inhibition of human SK-N-FI cell growth in a cell viability assay.

GAK = format: functional, cell-based;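 also: cell growth inhibition read out by a cell viability assay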
Description: SANGER: Inhibition of human GAK cell growth in a cell viability assay.

RCC10RGB = format: functional, cell-based;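 also: growth inhibition of human RCC10RGB cells, read out by a cell viability assay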
Description: SANGER: Inhibition of human RCC10RGB cell growth in a cell viability assay.

NB13 = format: functional, cell-based;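 also: cell viability readout measuring growth inhibition of human NB13 cells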
Description: SANGER: Inhibition of human NB13 cell growth in a cell viability assay.

DSH1 = format: functional, cell-based;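 also: growth inhibition of human DSH1 cells, measured with a cell viability readout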
Description: SANGER: Inhibition of human DSH1 cell growth in a cell viability assay.

HCC1187 = format: functional, cell-based;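 also: growth inhibition of HCC1187 cells, read out with a cell viability assay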
Description: SANGER: Inhibition of human HCC1187 cell growth in a cell viability assay.

OCUB-M = format: functional, cell-based;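 also: growth inhibition of the cancer cell line, read out through a cell viability assay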
Description: SANGER: Inhibition of human OCUB-M cell growth in a cell viability assay.

RS4-11 = format: functional, cell-based
Description: SANGER: Inhibition of human RS4-11 cell growth in a cell viability assay.

OVCAR-4 = format: functional, cell-based
Description: SANGER: Inhibition of human OVCAR-4 cell growth in a cell viability assay.

SW872 = format: functional, cell-based
Description: SANGER: Inhibition of human SW872 cell growth in a cell viability assay.

A3-KAW = format: functional, cell-based
Description: SANGER: Inhibition of human A3-KAW cell growth in a cell viability assay.

JVM-2 = format: functional, cell-based
Description: SANGER: Inhibition of human JVM-2 cell growth in a cell viability assay.

EC-GI-10 = format: functional, cell-based
Description: SANGER: Inhibition of human EC-GI-10 cell growth in a cell viability assay.

SK-UT-1 = format: functional, cell-based
Description: SANGER: Inhibition of human SK-UT-1 cell growth in a cell viability assay.

SW684 = format: functional, cell-based
Description: SANGER: Inhibition of human SW684 cell growth in a cell viability assay.

Structure (SMILES): N#C/C(=C1/Nc2ccccc2S1)c1ccnc(NCCc2cccnc2)n1
- IC50 (EOL1): 2.49 µM
- IC50 (ATN-1): > 8 µM
- IC50 (MZ2-MEL): > 8 µM
- IC50 (ETK-1): > 8 µM
- IC50 (TE-12): 1.4 µM
- IC50 (IST-SL1): > 8 µM
- IC50 (COLO-824): > 8 µM
- IC50 (MC116): 3.17 µM
- IC50 (SNB-75): 5.27 µM
- IC50 (CTV-1): 2.85 µM
- IC50 (NCI-H510A): > 8 µM
- IC50 (NCI-H1304): > 8 µM
- IC50 (TGBC1TKB): > 8 µM
- IC50 (LB2518-MEL): > 8 µM
- IC50 (SK-N-DZ): > 8 µM
- IC50 (SHP77): > 8 µM
- IC50 (NCI-H720): > 8 µM
- IC50 (SCH): > 8 µM
- IC50 (BV-173): > 8 µM
- IC50 (HD-MY-Z): > 8 µM
- IC50 (L-428): > 8 µM
- IC50 (NCI-H82): > 8 µM
- IC50 (HAL-01): > 8 µM
- IC50 (OCI-AML2): 4.65 µM
- IC50 (NCI-H1092): > 8 µM
- IC50 (MPP-89): 5.2 µM
- IC50 (NCI-H2126): > 8 µM
- IC50 (HT-144): > 8 µM
- IC50 (DMS-79): > 8 µM
- IC50 (NCI-H1770): > 8 µM
- IC50 (KU812 cell line): 6.65 µM
- IC50 (NCI-H1395): > 8 µM
- IC50 (Calu-6): > 8 µM
- IC50 (BB65-RCC): 6.71 µM
- IC50 (no-10): > 8 µM
- IC50 (NCI-H23): > 8 µM
- IC50 (A498): > 8 µM
- IC50 (LAMA-84): > 8 µM
- IC50 (DEL): 6.24 µM
- IC50 (OS-RC-2): > 8 µM
- IC50 (MFM-223): > 8 µM
- IC50 (NCI-H226): > 8 µM
- IC50 (COLO-829): > 8 µM
- IC50 (CAS-1): > 8 µM
- IC50 (RH-1): > 8 µM
- IC50 (DMS-114): > 8 µM
- IC50 (KALS-1): > 8 µM
- IC50 (LC-2-ad): > 8 µM
- IC50 (EW-24): > 8 µM
- IC50 (LU-139): > 8 µM
- IC50 (NH-12): > 8 µM
- IC50 (SK-N-FI): > 8 µM
- IC50 (GAK): 6.74 µM
- IC50 (RCC10RGB): > 8 µM
- IC50 (NB13): > 8 µM
- IC50 (DSH1): > 8 µM
- IC50 (HCC1187): 1.81 µM
- IC50 (OCUB-M): 1.08 µM
- IC50 (RS4-11): 3.93 µM
- IC50 (OVCAR-4): 5.7 µM
- IC50 (SW872): 1.32 µM
- IC50 (A3-KAW): > 8 µM
- IC50 (JVM-2): > 8 µM
- IC50 (EC-GI-10): > 8 µM
- IC50 (SK-UT-1): 7.5 µM
- IC50 (SW684): > 8 µM

Structure (SMILES): COc1cc(Nc2c(C#N)cnc3cc(OCCCN4CCN(C)CC4)c(OC)cc23)c(Cl)cc1Cl [BOSUTINIB]
- IC50 (EOL1): 0.416 µM
- IC50 (ATN-1): > 2 µM
- IC50 (MZ2-MEL): > 2 µM
- IC50 (ETK-1): > 2 µM
- IC50 (TE-12): > 2 µM
- IC50 (IST-SL1): > 2 µM
- IC50 (COLO-824): > 2 µM
- IC50 (MC116): > 2 µM
- IC50 (SNB-75): > 2 µM
- IC50 (CTV-1): 0.164 µM
- IC50 (NCI-H510A): > 2 µM
- IC50 (NCI-H1304): > 2 µM
- IC50 (TGBC1TKB): > 2 µM
- IC50 (LB2518-MEL): > 2 µM
- IC50 (SK-N-DZ): > 2 µM
- IC50 (SHP77): > 2 µM
- IC50 (NCI-H720): > 2 µM
- IC50 (SCH): > 2 µM
- IC50 (BV-173): 0.508 µM
- IC50 (HD-MY-Z): 1.64 µM
- IC50 (L-428): > 2 µM
- IC50 (NCI-H82): > 2 µM
- IC50 (HAL-01): 1.09 µM
- IC50 (OCI-AML2): > 2 µM
- IC50 (NCI-H1092): > 2 µM
- IC50 (MPP-89): > 2 µM
- IC50 (NCI-H2126): > 2 µM
- IC50 (HT-144): > 2 µM
- IC50 (DMS-79): > 2 µM
- IC50 (NCI-H1770): > 2 µM
- IC50 (KU812 cell line): 0.341 µM
- IC50 (NCI-H1395): > 2 µM
- IC50 (Calu-6): > 2 µM
- IC50 (BB65-RCC): 1.9 µM
- IC50 (no-10): > 2 µM
- IC50 (NCI-H23): > 2 µM
- IC50 (A498): 1.4 µM
- IC50 (LAMA-84): 0.287 µM
- IC50 (DEL): 1.44 µM
- IC50 (OS-RC-2): > 2 µM
- IC50 (MFM-223): > 2 µM
- IC50 (NCI-H226): > 2 µM
- IC50 (COLO-829): > 2 µM
- IC50 (CAS-1): > 2 µM
- IC50 (RH-1): > 2 µM
- IC50 (DMS-114): > 2 µM
- IC50 (KALS-1): > 2 µM
- IC50 (LC-2-ad): > 2 µM
- IC50 (EW-24): > 2 µM
- IC50 (LU-139): > 2 µM
- IC50 (NH-12): > 2 µM
- IC50 (SK-N-FI): > 2 µM
- IC50 (RCC10RGB): > 2 µM
- IC50 (NB13): > 2 µM
- IC50 (DSH1): > 2 µM
- IC50 (HCC1187): > 2 µM
- IC50 (OCUB-M): > 2 µM
- IC50 (RS4-11): 0.486 µM
- IC50 (OVCAR-4): > 2 µM
- IC50 (SW872): > 2 µM
- IC50 (A3-KAW): 0.792 µM
- IC50 (JVM-2): > 2 µM
- IC50 (EC-GI-10): > 2 µM
- IC50 (SK-UT-1): > 2 µM
- IC50 (SW684): > 2 µM
